# From US9463173B2, “Compositions and methods for treating obesity and obesity-related conditions” (THE JOHNS HOPKINS UNIVERSITY, priority 2014, dated 2016)
# How the values were obtained:
# human recombinant HDAC1 = human recombinant HDAC1 (Homo sapiens, UniProt Q13547); assay: HDAC activity fluorometric assay, recombinant HDAC1; format: biochemical; conditions: 800 mM VPA; 1 mM TSA; 20 mM metabolites; mean ± S.D.
# Experimental: (§1) FIG. 5A-5D. […] Deacetylation was measured using a fluorimetric assay. […] AMPKa was immunoprecipitated and immunoblotted for AMPKa and acetylated lysine (D). Immunoblots shown in D are representative of three independent experiments. Data in graphs are reported as the mean […] S.D. of samples from four independent experiments. […] DMSO, dimethylsulfoxide.
# (§2) Analysis of HDAC activity was performed using an HDAC activity fluorometric assay kit (Caymen Chemicals, Ann Arbor, Mich.) and was carried out according to the manufacturer's instructions. Crude nuclear extracts were prepared from primary mouse hepatocytes as described in the manufacturer's instructions.
# [1] = tested on: HDAC activity of mouse liver nuclear extracts; assay: HDAC activity fluorometric assay, crude nuclear extracts; format: biochemical; set-up: dose or concentration left out as unconfirmed; conditions: mean ± S.D.
# Experimental: as §1, §2
# AMPK [2] = assay: AMPK/ACC phosphorylation in primary mouse hepatocytes (immunoblot); format: cell-based; set-up: Phosphorylation (Ser79) of ACC / AMPK protein levels / ACC protein levels / Phosphorylation of ACC stimulated by VPA, in presence of AMPK inhibitor: dose or concentration left out as unconfirmed; conditions: for Levels of phosphorylated AMPK/ACC compared with VPA: 20 mM metabolite vs 800 mM VPA, 2 hours; for Levels of phosphorylated AMPK/ACC at higher concentration: 100 mM metabolite (data not shown)
# Experimental: Proteins (20 mg) were resolved by sodium dodecyl sulfate polyacrylamide gel electrophoresis, electrotransferred to a nitrocellulose membrane, and probed using antibodies against AMPKa, phosphorylated (p-) AMPKa (Thr172), ACC, p-ACC (Ser79), and b-actin (obtained from Cell Signaling Technology, Danvers, Mass.).
# ob/ob mice = assay: In vivo mouse study, 14 days via drinking water; conditions: for Accumulation of fats in the liver (histology) compared with untreated mice: hematoxylin and eosin staining; for Body mass day 1: day 1 prior to treatment; for Body mass day 7 / Body mass day 14: 0.26% (w/v) VPA or 0.5% (w/v) metformin in drinking water
# Experimental: FIG. 6A-6E. […] A section of each liver was analyzed using hemotoxylin and eosin staining Histology images are representative of four mice per treatment group (A). The mass of each liver was measured and calculated as a ratio to body mass (B). Serum glucose (C) and serum triglyceride (D) concentrations were measured using colorimetric assays. ALT was measured using a colorimetric assay to assess for hepatotoxicity (E). Data in graphs are reported as the mean […] S.D. of four mice per cohort.
# All treatments of mice as a part of this study were in accordance with protocols that were approved by the Institutional Animal Care and Use Committee of The Johns Hopkins University School of Medicine. […] Body masses were recorded on day 1 prior to treatment, day 7, and day 14. After 14 days of drug treatments, all mice were euthanized by isoflurane inhalation followed by cervical dislocation, and whole blood was collected immediately. The livers were weighed immediately, rinsed in cold phosphate-buffered saline, and fixed in 10% formalin for 48 hours for hematoxylin and eosin staining.
# Serum glucose was analyzed using a Colorimetric Glucose Assay obtained from BioVision, Inc. (Milpitas, Calif.) and was performed according to manufacturer's instructions. Serum triglycerides were analyzed utilizing a Serum Triglyceride Determination Kit obtained from Sigma-Aldrich and was performed according to manufacturer's instructions.
# [3] = 10 mg/kg/day in adults; cited from earlier work
# AMPKa = AMPKa acetylation status in hepatocytes (immunoprecipitation, acetylated lysine immunoblot); format: cell-based, mouse
# Experimental: as §1
# AMPK [4] = assay: AMPK/ACC phosphorylation in primary human hepatocytes (immunoblot); format: cell-based; set-up: dose or concentration left out as unconfirmed; conditions: 1 to 24 hours; following 1 hour; each of four donors
# Experimental: Primary human hepatocytes were obtained from XenoTech LLC (Lenexa, Kans.). Four preparations were used: […]. The hepatocytes had reported viabilities of 95.4, 74.7, 77.9, and 74.9%, respectively. Upon receipt, the shipping medium was changed to Williams' E medium containing 10% FBS, penicillin, streptomycin, and L-glutamine. Following 24 hours of incubation at 37° C. and 5% CO2, the media was changed to 5% FBS, penicillin, streptomycin, and L-glutamine 4 hours prior to treatments.
# Cells were harvested as previously described (Bumpus, 2011). Proteins ([…]) were resolved by sodium dodecyl sulfate polyacrylamide gel electrophoresis, electrotransferred to a nitrocellulose membrane, and probed using antibodies against AMPKa, phosphorylated (p-) AMPKa (Thr172), ACC, p-ACC (Ser79), and b-actin (obtained from Cell Signaling Technology, Danvers, Mass.).
# Chain of human recombinant HDAC1 (Q13547 whole entry): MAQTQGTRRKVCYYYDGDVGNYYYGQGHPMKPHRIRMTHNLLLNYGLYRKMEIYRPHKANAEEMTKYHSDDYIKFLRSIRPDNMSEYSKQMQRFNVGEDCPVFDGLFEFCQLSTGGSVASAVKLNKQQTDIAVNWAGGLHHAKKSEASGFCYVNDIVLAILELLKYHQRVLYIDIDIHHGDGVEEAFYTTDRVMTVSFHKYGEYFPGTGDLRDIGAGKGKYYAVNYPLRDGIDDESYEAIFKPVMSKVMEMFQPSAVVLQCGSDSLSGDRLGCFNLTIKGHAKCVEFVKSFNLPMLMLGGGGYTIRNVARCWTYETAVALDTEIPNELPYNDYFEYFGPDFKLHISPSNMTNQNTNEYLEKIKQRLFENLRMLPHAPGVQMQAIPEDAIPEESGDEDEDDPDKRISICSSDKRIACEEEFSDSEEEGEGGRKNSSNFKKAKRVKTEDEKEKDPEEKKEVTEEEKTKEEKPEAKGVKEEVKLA
structure (smiles),measurement,setting,value
"CCCC(C(=O)[O-])C(=O)CC.[Na+] (stereo not drawn) [3-keto-VPA, 3-oxo-2-propyl-pentanoic Acid Sodium Salt]",deacetylation,human recombinant HDAC1,90.9±15.2%
same,deacetylation as compared with samples treated with vehicle only,[1],94±7.3%
"CC/C=C(\CCC)C(=O)O [2-ene-VPA, (E,Z) 2-Propyl-2-pentenoic Acid]",deacetylation,human recombinant HDAC1,90±9.1%
same,Levels of phosphorylated AMPK/ACC compared with VPA,AMPK [2],greater than treatment with VPA itself
same,Levels of phosphorylated AMPK/ACC at higher concentration,AMPK [2],commensurate with those observed using 20 mM of metabolites
same,deacetylation as compared with samples treated with vehicle only,[1],93.6±3.6%
"CCCC(C(=O)O)C(O)CC (stereo not drawn) [3-OH-VPA, 3-Hydroxy-2-propylpentanoic Acid]",deacetylation,human recombinant HDAC1,86±16.8%
same,Levels of phosphorylated AMPK/ACC compared with VPA,AMPK [2],greater than treatment with VPA itself
same,Levels of phosphorylated AMPK/ACC at higher concentration,AMPK [2],commensurate with those observed using 20 mM of metabolites
same,deacetylation as compared with samples treated with vehicle only,[1],98±3.9%
"CN(C)C(=N)N=C(N)N [metformin, Metformin]",Ratio of liver mass to body mass compared with untreated mice,ob/ob mice; 14 days,significantly decreased
same,Serum ALT activity,ob/ob mice; 14 days,13.3±4 mU/ml
same,Serum glucose concentrations compared with untreated mice,ob/ob mice; 14 days,significantly decreased
same,Serum triglyceride concentrations compared with untreated mice,ob/ob mice; 14 days,decreased
same,Accumulation of fats in the liver (histology) compared with untreated mice,ob/ob mice; 14 days,marked reduction
same,Body mass day 1,ob/ob mice,45.4 ± 6 g
same,Body mass day 7,ob/ob mice,47.4 ± 5.6 g
same,Body mass day 14,ob/ob mice,50 ± 6.1 g
"CCCC(CCC)C(=O)O [VPA, valproic acid]",Serum concentrations of VPA,[3],400 to 1000 µM
same,Acetylation of AMPKa compared with vehicle treatment samples,AMPKa,commensurate
same,Phosphorylation of AMPK and ACC,AMPK [4],observed
same,deacetylation,human recombinant HDAC1,73.2±5%
same,Concentration at which maximal phosphorylation of AMPK and ACC was observed,"AMPK [2]; 2-hour treatment, concentrations from 200 mM to 2 mM",800 mM
same,ACC protein levels,AMPK [2]; VPA,not significantly different
same,AMPK protein levels,AMPK [2]; VPA,did not change significantly
same,Phosphorylation (Ser79) of ACC,"AMPK [2]; VPA, time course 1-24 hours",observed
same,Accumulation of fats in the liver (histology) compared with untreated mice,ob/ob mice; 14 days,marked reduction
same,Body mass day 1,ob/ob mice,50.2 ± 3 g
same,Body mass day 7,ob/ob mice,51.8 ± 3 g
same,Body mass day 14,ob/ob mice,53.8 ± 2.7 g
same,Abnormalities in the histology of treated livers,"ob/ob mice; mouse, in vivo",did not detect any abnormalities
same,deacetylation as compared with samples treated with vehicle only,[1],76.4±1.2%
"C=CCC(CCC)C(=O)O (racemic) [4-ene-VPA, (+/−)-2-Propyl-4-pentenoic Acid]",deacetylation,human recombinant HDAC1,81.5±15.5%
same,Levels of phosphorylated AMPK/ACC compared with VPA,AMPK [2],greater than treatment with VPA itself
same,Levels of phosphorylated AMPK/ACC at higher concentration,AMPK [2],commensurate with those observed using 20 mM of metabolites
same,deacetylation as compared with samples treated with vehicle only,[1],90.1±3.9%
"CC(/C=C/C(=O)NO)=C\[C@@H](C)C(=O)c1ccc(N(C)C)cc1 [TSA, trichostatin A]",deacetylation as compared with samples treated with vehicle only,[1],34.6±4.3%
"c1cc(-c2cnn3cc(-c4ccc(OCCN5CCCCC5)cc4)cnc23)ccn1 [Compound C, 6-[4-(2-piperidin-1-ylethoxy)phenyl]-3-pyridin-4-ylpyrazolo[1,5-a]pyrimidine]","Phosphorylation of ACC stimulated by VPA, in presence of AMPK inhibitor",AMPK [2]; Compound C 30 minutes prior to VPA for 2 hours,abrogated
"Nn1nnc2ccccc21 [ABT, 1-aminobenzotriazole]","Levels of phosphorylated AMPK, ABT and VPA compared with ABT alone",AMPK [2]; 1 mM ABT 1 hour prior to VPA for 2 hours,not elevated
